Experimental data taken from PubChem BioAssay (NCI).
Where “and” joins values, the source holds several entries; their conditions need not be identical. Equal entries are not always repeated.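 Briefly, cells in 96-well plates were exposed to five compound concentrations for 48 h, and endpoints were estimated by linear interpolation. The concentration for 50% growth inhibition is given as GI50. At the TGI there is no net growth.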

Each molecule was assayed on UO-31 renal (assay: NCI-60 cell line screen, 48 h).
In the case of `CCN(CCO)CC1CCCC2CCCCC21` (stereo not drawn), the TGI is reported as > 100 µM.
With `CC[C@@]1(O)C[C@H](OC2CC(N(C)C)C(O)C(C)O2)c2c(O)c3c(c(O)c2[C@H]1OC1CC(N(C)C)C(O)C(C)O1)C(=O)c1cccc(O)c1C3=O` (stereo partly drawn) the GI50 was < 0.01 µM.
`COC1(OC)CCC2C1C1CCC(OC)(OC)C21` (stereo not drawn) was tested, and the TGI was > 50 µM.
`NNC(=O)Nc1cccnc1` was tested, and the TGI was > 100 µM.
In the case of `CC/C=C\CCC/C=C1/C(=O)C=C[C@@H]1C/C=C\CCCC(=O)OC`, the GI50 is reported as 2.04 µM and the TGI is reported as 5.15 µM.
`COc1ccc(-c2nc3sccn3c2/C(N)=N/C(=N)N)cc1OC` gave a GI50 of 7.37 µM and a TGI of 40.2 µM.
In the case of `CCCCCCCCCCCOc1ccc(C(=O)C(=O)c2ccc(OCCCCCCCCCCC)c(OCCCCCCCCCCC)c2)cc1OCCCCCCCCCCC`, the TGI is reported as > 100 µM.
Work on `Cn1cnc([N+](=O)[O-])c1Sc1nnc(-c2cccnc2)n1C` yielded a TGI of 53.8 µM.
With `CCOC(=O)C1=C(C)NC(=S)NC1c1ccccc1` (stereo not drawn) the TGI was > 57.1 µM.
In the case of `COC1=CC(=O)c2nc(-c3ccncc3)[nH]c2C1=O`, the GI50 is reported as 86.7 µM and the TGI is reported as > 100 µM.
With `O=C(/C=C/c1ccccc1)NC1C=Nc2ccc(Cl)cc2NC1=O` (stereo not drawn) the TGI was 87.8 µM.
`COC1CCC2C(NS(=O)(=O)c3ccc(C)cc3)CCCC2O1` (stereo not drawn) (tested in a mixture with another compound) was tested, and the TGI was > 34.5 µM.
In the case of `CC(C)C/C(CC(=O)CCC(=O)Nc1ccccc1[N+](=O)[O-])=N\NC(=O)c1cc2ccccc2cc1O`, the TGI is reported as > 100 µM.
Work on `O=C1/C(=C/c2cccc([N+](=O)[O-])c2)COc2ccc(O)cc21` yielded a GI50 of 1.51 µM and a TGI of 2.93 µM.
Work on `O=C(O)c1ccccc1[Se][Se]c1ccccc1C(=O)O` yielded a TGI of 28.3 µM.
With `COc1cc(CNc2cnc3cc(N)cc(N)c3n2)cc(OC)c1` the GI50 was 38.2 µM and the TGI was > 100 µM.
For `Clc1cc2nsnc2c(Cl)n1`, the TGI was 39.8 µM.
For `N#CC1C(C#N)C2(c3ccccc3)C(c3ccccc3)=NN(c3ccccc3)CC12` (stereo not drawn), the TGI was > 100 µM.
With `COc1cc(Cc2cnc(/N=C3\C(=O)N(CN4CCN(c5c(F)cc6c(=O)c(C(=O)O)cn(C7CC7)c6c5OC)CC4C)c4ccc(F)cc43)nc2N)cc(OC)c1OC` (stereo not drawn) the GI50 was 31.7 µM and the TGI was > 100 µM.
With `Cc1cccc2c(=O)cc(-c3ccccc3)[nH]c12` the TGI was > 100 µM.
For `CCCCOC(=O)C1OC(O[C@H]2CCC3(C)C(CCC4(C)C3CC=C3C5CC(C)(C)CCC5(C(=O)O)CC[C@]34C)C2(C)C)C(OC2OC(CO)C(O)C(O)C2O)C(OC2OC(CO)C(O)C(O)C2O)C1O` (stereo partly drawn), the GI50 was 49.2 µM and the TGI was > 100 µM.
In the case of `Cc1nc2ccccc2c(=O)n1-c1ccccc1I`, the TGI is reported as > 100 µM.
In the case of `CN1C(=O)C(C)(C)C2(SC(C)(C)C2(C)C)N(C)C1=S` (stereo not drawn), the TGI is reported as > 100 µM.
In the case of `CC(=O)NNc1nc(C)c(C(=O)NNC(=O)C(=O)Nc2ccc(Cl)cc2)s1`, the TGI is reported as > 100 µM.
With `CC1(C)CCc2c(c3c(c4c(=O)c(O)c(-c5ccc(O)cc5)oc24)OC(C)(C)CC3)O1` the GI50 was > 100 µM and the TGI was > 100 µM.
With `CN/N=C(/Cc1occc(=O)c1O)C(=O)Nc1ccccc1C` the TGI was > 100 µM.
In the case of `CC1=C(C(=O)NCc2ccccc2)C(/C=C/c2ccccc2)C(C(=O)NCc2ccccc2)=C(C)N1`, the TGI is reported as > 100 µM.
In the case of `N#CCCN(CCC#N)c1ccc(/C=C2\N=C(c3cc([N+](=O)[O-])ccc3Cl)OC2=O)cc1`, the TGI is reported as > 100 µM.
`CSc1nc2c(c(=O)[nH]1)N=C1c3ccccc3C(=O)C1C(c1ccccc1)N2` (stereo not drawn) was tested, and the GI50 was 5.23 µM and the TGI was > 100 µM.
`CC1=C(C(=O)Nc2ccc(Cl)c(Cl)c2)C(c2cccc(Oc3ccccc3)c2)NC(=S)N1` (stereo not drawn) gave a GI50 of 7.63 µM and a TGI of 17.6 µM.
Molecule `Cc1cc(C)nc(NS(=O)(=O)c2ccc(NC(=O)c3ccc(Cl)c4c(Nc5ccc(S(=O)(=O)Nc6nc(C)cc(C)n6)cc5)c5ccccc5nc34)cc2)n1` has a TGI of 57.4 µM.
`N#CC(c1ccc(Cl)cc1)c1cccc(C(C#N)c2ccc(Cl)cc2)n1` (stereo not drawn) was tested, and the TGI was 42.3 µM.
`O=C1/C(=C/c2ccccc2)CN(C(=O)C(Cl)(Cl)Cl)C/C1=C\c1ccccc1` showed a TGI of 7.03 µM.
For `Cc1ccc(NC2=C(Cl)C(=O)N(Cc3ccccc3)C2=O)cc1O`, the GI50 was 82.2 µM and the TGI was > 100 µM.
`C=C1C(=O)C23CC1CCC2C12CO[C@@H]4OCC(C)(CC[C@@H]1OC3=O)C42` (stereo partly drawn) gave a TGI of 23.6 µM.

These molecules were tested on OVCAR-4 ovarian (assay: NCI-60 cell line screen, 48 h).
For `CCN(CCO)CC1CCCC2CCCCC21` (stereo not drawn), the TGI was > 100 µM.
With `CC[C@@]1(O)C[C@H](OC2CC(N(C)C)C(O)C(C)O2)c2c(O)c3c(c(O)c2[C@H]1OC1CC(N(C)C)C(O)C(C)O1)C(=O)c1cccc(O)c1C3=O` (stereo partly drawn) the GI50 was < 0.01 µM and the TGI was 0.601 µM and 0.147 µM.
For `COC1(OC)CCC2C1C1CCC(OC)(OC)C21` (stereo not drawn), the TGI was > 50 µM.
For `NNC(=O)Nc1cccnc1`, the TGI was > 100 µM.
With `CC/C=C\CCC/C=C1/C(=O)C=C[C@@H]1C/C=C\CCCC(=O)OC` the GI50 was 4.27 µM and the TGI was 16.4 µM.
In the case of `COc1ccc(-c2nc3sccn3c2/C(N)=N/C(=N)N)cc1OC`, the GI50 is reported as > 100 µM and the TGI is reported as > 100 µM.
In the case of `CCCCCCCCCCCOc1ccc(C(=O)C(=O)c2ccc(OCCCCCCCCCCC)c(OCCCCCCCCCCC)c2)cc1OCCCCCCCCCCC`, the TGI is reported as > 100 µM.
`Cn1cnc([N+](=O)[O-])c1Sc1nnc(-c2cccnc2)n1C` showed a TGI of 56.6 µM.
In the case of `CCOC(=O)C1=C(C)NC(=S)NC1c1ccccc1` (stereo not drawn), the TGI is reported as > 100 µM.
In the case of `COC1=CC(=O)c2nc(-c3ccncc3)[nH]c2C1=O`, the GI50 is reported as 45.3 µM and the TGI is reported as > 100 µM.
`O=C(/C=C/c1ccccc1)NC1C=Nc2ccc(Cl)cc2NC1=O` (stereo not drawn) was tested, and the TGI was > 100 µM.
`COC1CCC2C(NS(=O)(=O)c3ccc(C)cc3)CCCC2O1` (stereo not drawn) (tested in a mixture with another compound) was tested, and the TGI was > 34.5 µM.
With `O=C1/C(=C/c2cccc([N+](=O)[O-])c2)COc2ccc(O)cc21` the GI50 was 3.3 µM and the TGI was 11.1 µM.
With `O=C(O)CCc1coc2ccc(O)cc12` the TGI was > 100 µM.
`Clc1cc2nsnc2c(Cl)n1` showed a TGI of 31.3 µM.
In the case of `N#CC1C(C#N)C2(c3ccccc3)C(c3ccccc3)=NN(c3ccccc3)CC12` (stereo not drawn), the TGI is reported as > 100 µM.
Molecule `Cc1cccc2c(=O)cc(-c3ccccc3)[nH]c12` has a TGI of 35.7 µM.
With `Cc1nc2ccccc2c(=O)n1-c1ccccc1I` the TGI was > 100 µM.
`CN1C(=O)C(C)(C)C2(SC(C)(C)C2(C)C)N(C)C1=S` (stereo not drawn) was tested, and the TGI was > 100 µM.
`CC(=O)NNc1nc(C)c(C(=O)NNC(=O)C(=O)Nc2ccc(Cl)cc2)s1` was tested, and the TGI was > 100 µM.
With `CC1(C)CCc2c(c3c(c4c(=O)c(O)c(-c5ccc(O)cc5)oc24)OC(C)(C)CC3)O1` the GI50 was > 100 µM and the TGI was > 100 µM.
For `CN/N=C(/Cc1occc(=O)c1O)C(=O)Nc1ccccc1C`, the TGI was > 100 µM.
`Cc1coc2c1CC1(C)C(CCC(O)C1C)C2` (stereo not drawn) was tested, and the TGI was > 100 µM.
With `CC1=C(C(=O)NCc2ccccc2)C(/C=C/c2ccccc2)C(C(=O)NCc2ccccc2)=C(C)N1` the TGI was > 100 µM.
`N#CCCN(CCC#N)c1ccc(/C=C2\N=C(c3cc([N+](=O)[O-])ccc3Cl)OC2=O)cc1` showed a TGI of 78.6 µM.
For `CSc1nc2c(c(=O)[nH]1)N=C1c3ccccc3C(=O)C1C(c1ccccc1)N2` (stereo not drawn), the GI50 was 5.62 µM and the TGI was > 100 µM.
Molecule `CC1=C(C(=O)Nc2ccc(Cl)c(Cl)c2)C(c2cccc(Oc3ccccc3)c2)NC(=S)N1` (stereo not drawn) has a GI50 of 7.56 µM and a TGI of 16.5 µM.
Work on `Cc1cc(C)nc(NS(=O)(=O)c2ccc(NC(=O)c3ccc(Cl)c4c(Nc5ccc(S(=O)(=O)Nc6nc(C)cc(C)n6)cc5)c5ccccc5nc34)cc2)n1` yielded a TGI of 48.1 µM.
In the case of `N#CC(c1ccc(Cl)cc1)c1cccc(C(C#N)c2ccc(Cl)cc2)n1` (stereo not drawn), the TGI is reported as > 100 µM.
Molecule `O=C1/C(=C/c2ccccc2)CN(C(=O)C(Cl)(Cl)Cl)C/C1=C\c1ccccc1` has a TGI of 3.42 µM.
For `Cc1ccc(NC2=C(Cl)C(=O)N(Cc3ccccc3)C2=O)cc1O`, the GI50 was 79.3 µM and the TGI was > 100 µM.

Each molecule was assayed on SF-539 CNS (assay: NCI-60 cell line screen, 48 h).
In the case of `CCN(CCO)CC1CCCC2CCCCC21` (stereo not drawn), the TGI is reported as > 100 µM.
With `CC[C@@]1(O)C[C@H](OC2CC(N(C)C)C(O)C(C)O2)c2c(O)c3c(c(O)c2[C@H]1OC1CC(N(C)C)C(O)C(C)O1)C(=O)c1cccc(O)c1C3=O` (stereo partly drawn) the GI50 was < 0.01 µM and the TGI was 0.212 µM and 0.183 µM.
With `COC1(OC)CCC2C1C1CCC(OC)(OC)C21` (stereo not drawn) the TGI was > 50 µM.
With `NNC(=O)Nc1cccnc1` the TGI was > 100 µM.
`CC/C=C\CCC/C=C1/C(=O)C=C[C@@H]1C/C=C\CCCC(=O)OC` was tested, and the GI50 was 3.49 µM and the TGI was 12.9 µM.
Work on `COc1ccc(-c2nc3sccn3c2/C(N)=N/C(=N)N)cc1OC` yielded a GI50 of 25.7 µM and a TGI of 66 µM.
For `CCCCCCCCCCCOc1ccc(C(=O)C(=O)c2ccc(OCCCCCCCCCCC)c(OCCCCCCCCCCC)c2)cc1OCCCCCCCCCCC`, the TGI was > 100 µM.
In the case of `Cn1cnc([N+](=O)[O-])c1Sc1nnc(-c2cccnc2)n1C`, the TGI is reported as 55.2 µM.
`CCOC(=O)C1=C(C)NC(=S)NC1c1ccccc1` (stereo not drawn) was tested, and the TGI was > 100 µM.
With `COC1=CC(=O)c2nc(-c3ccncc3)[nH]c2C1=O` the GI50 was > 100 µM and the TGI was > 100 µM.
With `O=C(/C=C/c1ccccc1)NC1C=Nc2ccc(Cl)cc2NC1=O` (stereo not drawn) the TGI was 88.2 µM.
In the case of `COC1CCC2C(NS(=O)(=O)c3ccc(C)cc3)CCCC2O1` (stereo not drawn) (tested in a mixture with another compound), the TGI is reported as > 34.5 µM.
With `CC(C)C/C(CC(=O)CCC(=O)Nc1ccccc1[N+](=O)[O-])=N\NC(=O)c1cc2ccccc2cc1O` the TGI was 82.3 µM.
Molecule `O=C1/C(=C/c2cccc([N+](=O)[O-])c2)COc2ccc(O)cc21` has a GI50 of 1.87 µM and a TGI of 3.73 µM.
For `O=C(O)c1ccccc1[Se][Se]c1ccccc1C(=O)O`, the TGI was > 100 µM.
`COc1cc(CNc2cnc3cc(N)cc(N)c3n2)cc(OC)c1` was tested, and the GI50 was 23.2 µM and the TGI was 46.9 µM.
